Molecules are shown by their SMILES. Where two headings read alike, the source gives them in different places.

One experiment deals with SARS-CoV-2 Mpro (Severe acute respiratory syndrome coronavirus 2, UniProt P0DTD1). Description: SARS-CoV-2 Mpro enzymatic inhibition assay (fluorescence). The experiment is classed as biochemical. The gist of the method: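 Recombinant Mpro expressed in E. coli was preincubated 30 min at room temperature with 10-point, 3-fold serially diluted compound in duplicate. Fluorogenic substrate was then added and incubated 60 min at 30° C, and fluorescence read at Ex/Em 340/490 nm. IC50 came from a four-parameter fit of % inhibition.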

The next experiment has as its target HCoV-229E Mpro (Human coronavirus 229E, UniProt P0C6X1). As to the kind of experiment: HCoV-229E Mpro enzymatic inhibition assay (fluorescence). It counts as biochemical.
For a further experiment, the target named is HCoV-HKU1 Mpro (Human coronavirus HKU1, UniProt P0C6X2). As to the kind of experiment: HCoV-HKU1 Mpro enzymatic inhibition assay (fluorescence). It counts as biochemical. The gist of the method: (§1)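 Fluorescence at 340/490 nm after 60 min substrate cleavage at 30 °C is the read-out. Purified E. coli-expressed protease had been pre-incubated 30 min at room temperature with 10-dose, 3-fold compound series in duplicate.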

A further experiment concerns the target MERS Mpro (Middle East respiratory syndrome-related coronavirus, UniProt K9N7C7). As to the kind of experiment: biochemical. Further details: species or system MERS-CoV.
In another experiment the target is HCoV-NL63 Mpro (Human coronavirus NL63, UniProt P0C6X5). As to the kind of experiment: HCoV-NL63 Mpro enzymatic inhibition assay (fluorescence). The experiment is classed as biochemical. The gist of the method:
as §1

Another experiment addresses HCoV-OC43 Mpro (Human coronavirus OC43, UniProt P0C6X6). As to the kind of experiment: HCoV-OC43 Mpro enzymatic inhibition assay (fluorescence). It counts as biochemical. The method, boiled down:
as §1

A further experiment addresses SARS-CoV-1 Mpro (Severe acute respiratory syndrome coronavirus, UniProt P0C6X7). Description: biochemical.
Setting [1] is: mean, 25 nM protein, 25 μM substrate, 30 min pre-incubation, 60 min at 30° C., read-out: Mpro_SARS-CoV-2 mean IC50.

HCoV-HKU1 Mpro, sequence (P0C6X2 3335-3637 limits assumed): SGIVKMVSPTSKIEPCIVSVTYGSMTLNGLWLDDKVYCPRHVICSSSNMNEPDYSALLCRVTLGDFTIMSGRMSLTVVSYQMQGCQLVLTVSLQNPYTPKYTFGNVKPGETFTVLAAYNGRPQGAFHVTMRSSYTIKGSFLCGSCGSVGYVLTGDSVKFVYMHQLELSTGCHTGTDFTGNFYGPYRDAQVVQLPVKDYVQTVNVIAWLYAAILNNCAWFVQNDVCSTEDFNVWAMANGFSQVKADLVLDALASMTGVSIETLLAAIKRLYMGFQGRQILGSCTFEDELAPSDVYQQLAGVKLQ
HCoV-OC43 Mpro, sequence (P0C6X6 3247-3549 limits assumed): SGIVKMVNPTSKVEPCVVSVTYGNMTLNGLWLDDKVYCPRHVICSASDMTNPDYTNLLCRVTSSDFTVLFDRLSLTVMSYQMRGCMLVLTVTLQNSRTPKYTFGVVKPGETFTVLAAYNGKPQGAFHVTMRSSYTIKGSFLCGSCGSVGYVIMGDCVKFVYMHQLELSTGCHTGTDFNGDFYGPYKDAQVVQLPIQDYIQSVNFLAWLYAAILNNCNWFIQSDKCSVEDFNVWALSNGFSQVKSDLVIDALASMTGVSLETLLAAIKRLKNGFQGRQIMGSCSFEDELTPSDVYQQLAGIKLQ
HCoV-229E Mpro, sequence (P0C6X1 2966-3267 limits assumed): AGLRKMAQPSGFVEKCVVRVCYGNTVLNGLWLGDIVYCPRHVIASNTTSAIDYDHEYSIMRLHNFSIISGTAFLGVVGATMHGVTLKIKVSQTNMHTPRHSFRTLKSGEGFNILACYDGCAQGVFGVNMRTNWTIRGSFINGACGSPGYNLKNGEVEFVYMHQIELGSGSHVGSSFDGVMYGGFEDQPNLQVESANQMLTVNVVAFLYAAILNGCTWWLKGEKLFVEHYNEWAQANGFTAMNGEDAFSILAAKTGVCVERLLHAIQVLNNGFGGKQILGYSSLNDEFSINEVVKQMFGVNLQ
MERS Mpro, sequence (K9N7C7 3248-3553 limits assumed): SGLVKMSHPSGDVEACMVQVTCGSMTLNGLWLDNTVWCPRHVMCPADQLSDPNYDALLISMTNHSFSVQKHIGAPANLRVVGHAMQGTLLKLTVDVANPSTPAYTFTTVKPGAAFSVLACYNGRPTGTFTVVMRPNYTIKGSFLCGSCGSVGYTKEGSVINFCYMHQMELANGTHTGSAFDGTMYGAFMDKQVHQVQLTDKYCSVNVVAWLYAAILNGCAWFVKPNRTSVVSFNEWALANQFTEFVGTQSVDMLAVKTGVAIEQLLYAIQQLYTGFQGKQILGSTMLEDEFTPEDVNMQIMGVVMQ
HCoV-NL63 Mpro, sequence (P0C6X5 2940-3242 limits assumed): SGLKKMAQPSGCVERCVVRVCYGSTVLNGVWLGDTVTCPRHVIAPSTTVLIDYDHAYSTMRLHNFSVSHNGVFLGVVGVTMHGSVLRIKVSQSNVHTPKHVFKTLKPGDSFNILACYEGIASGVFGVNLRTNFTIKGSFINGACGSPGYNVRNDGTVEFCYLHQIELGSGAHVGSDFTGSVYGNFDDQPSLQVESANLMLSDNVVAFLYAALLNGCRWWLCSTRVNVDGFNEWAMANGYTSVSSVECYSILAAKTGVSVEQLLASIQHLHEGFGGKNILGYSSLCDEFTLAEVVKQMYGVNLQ

For the compound `C[C@@H]1C[C@@H](C(=O)N[C@H](C=O)C[C@@H]2CCNC2=O)N(C(=O)c2cc3ccccc3[nH]2)C1` [Compound 107, (2S,4R)-1-(1H-Indole-2-carbonyl)-4-methyl-N—((S)-1-oxo-3-((S)-2-oxopyrrolidin-3-yl)propan-2-yl)pyrrolidine-2-carboxamide], the IC50 amounted to 77 nM at SARS-CoV-2 Mpro; 44.2 nM at HCoV-229E Mpro; 46.5 nM on HCoV-HKU1 Mpro; 522 nM on MERS Mpro; 62 nM at HCoV-NL63 Mpro; 195 nM against HCoV-OC43 Mpro. For the same compound, half-maximal inhibition on SARS-CoV-1 Mpro (IC50) was put at 186 nM.

For `C=C1C[C@@H](C(=O)N[C@H](C=O)C[C@@H]2CCNC2=O)N(C(=O)c2cc3ccccc3[nH]2)C1` [Compound 108, (S)-1-(1H-Indole-2-carbonyl)-4-methylene-N—((S)-1-oxo-3-((S)-2-oxopyrrolidin-3-yl)propan-2-yl)pyrrolidine-2-carboxamide], the IC50 against SARS-CoV-2 Mpro was 78.5 nM; on HCoV-229E Mpro, 48 nM; at HCoV-HKU1 Mpro, 29 nM; against MERS Mpro, 291 nM; at HCoV-NL63 Mpro, 38 nM; against HCoV-OC43 Mpro, 193 nM. Half-maximal inhibition against SARS-CoV-1 Mpro (IC50) was put at 159 nM.

With `O=C[C@H](C[C@@H]1CCNC1=O)NC(=O)[C@@H]1C[C@@H](Cc2ccccc2Cl)CN1C(=O)c1cc2ccccc2[nH]1` [Compound 109, (2S,4R)-4-(2-Chlorobenzyl)-1-(1H-indole-2-carbonyl)-N—((S)-1-oxo-3-((S)-2-oxopyrrolidin-3-yl)propan-2-yl)pyrrolidine-2-carboxamide], the IC50 on SARS-CoV-2 Mpro amounted to 80.8 nM; at HCoV-229E Mpro, 374 nM; against HCoV-HKU1 Mpro, 48.9 nM; against MERS Mpro it was 4320 nM; against HCoV-NL63 Mpro, 2320 nM; at HCoV-OC43 Mpro, 271 nM. Moreover, at SARS-CoV-1 Mpro, half-maximal inhibition (IC50) was put at 231 nM.

As to `CC1CC(C(=O)N2C[C@H]3[C@@H]([C@H]2C(=O)N[C@H](C=O)C[C@@H]2CCNC2=O)C3(C)C)C1` (stereo partly drawn) [Compound 110, (1R,2S,5S)-6,6-Dimethyl-3-(3-methylcyclobutanecarbonyl)-N—((S)-1-oxo-3-((S)-2-oxopyrrolidin-3-yl)propan-2-yl)-3-azabicyclo[3.1.0]hexane-2-carboxamide], the IC50 stood at 82.2 nM on SARS-CoV-2 Mpro (setting [1]); 105 nM at HCoV-229E Mpro; 230 nM at HCoV-HKU1 Mpro; 1160 nM on MERS Mpro; 1590 nM at HCoV-NL63 Mpro; 318 nM against HCoV-OC43 Mpro. On SARS-CoV-1 Mpro, this compound returned an IC50 of 205 nM.

On to `CCOc1ccc2[nH]c(C(=O)N3C[C@H]4[C@@H]([C@H]3C(=O)N[C@H](C=O)C[C@@H]3CCNC3=O)C4(C)C)cc2c1` [Compound 111, (1R,2S,5S)-3-(5-Ethoxy-1H-indole-2-carbonyl)-6,6-dimethyl-N—((S)-1-oxo-3-((S)-2-oxopyrrolidin-3-yl)propan-2-yl)-3-azabicyclo[3.1.0]hexane-2-carboxamide], for which the IC50 against SARS-CoV-2 Mpro is 84.1 nM; against HCoV-229E Mpro, 83.3 nM; on HCoV-HKU1 Mpro, 73.3 nM; against MERS Mpro it was 866 nM; at HCoV-NL63 Mpro it was 135 nM; at HCoV-OC43 Mpro, 169 nM. The compound further gave an IC50 at SARS-CoV-1 Mpro of 119 nM.

As for `N#C[C@@H]1C[C@@H](C(=O)N[C@H](C=O)C[C@@H]2CCNC2=O)N(C(=O)c2cc3ccccc3[nH]2)C1` [Compound 112, (2S,4R)-4-Cyano-1-(1H-indole-2-carbonyl)-N—((S)-1-oxo-3-((S)-2-oxopyrrolidin-3-yl)propan-2-yl)pyrrolidine-2-carboxamide], the IC50 is 84.6 nM against SARS-CoV-2 Mpro; 149 nM on HCoV-229E Mpro; 120 nM against HCoV-HKU1 Mpro; 2760 nM against MERS Mpro; 503 nM against HCoV-NL63 Mpro; 390 nM against HCoV-OC43 Mpro. This compound also displayed an IC50 against SARS-CoV-1 Mpro of 244 nM.

Take `O=C[C@H](C[C@@H]1CCNC1=O)NC(=O)[C@@H]1C[C@@H]2CCCC[C@@H]2N1C(=O)c1cc2ccccc2[nH]1` [Compound 113, (2S,3aS,7aS)-1-(1H-Indole-2-carbonyl)-N—((S)-1-oxo-3-((S)-2-oxopyrrolidin-3-yl)propan-2-yl)octahydro-1H-indole-2-carboxamide]: the IC50 against SARS-CoV-2 Mpro was 91.6 nM; against HCoV-229E Mpro, 33.2 nM; on HCoV-HKU1 Mpro, 28.4 nM; against MERS Mpro it was 581 nM; on HCoV-NL63 Mpro, 35.7 nM; against HCoV-OC43 Mpro, 79.3 nM. The compound also had an IC50 against SARS-CoV-1 Mpro of 339 nM.

Regarding `COc1cc2cc(C(=O)N3C[C@H]4[C@@H]([C@H]3C(=O)N[C@H](C=O)C[C@@H]3CCNC3=O)C4(C)C)[nH]c2cc1OC` [Compound 114, (1R,2S,5S)-3-(5,6-dimethoxy-1H-Indole-2-carbonyl)-6,6-dimethyl-N—((S)-1-oxo-3-((S)-2-oxopyrrolidin-3-yl)propan-2-yl)-3-azabicyclo[3.1.0]hexane-2-carboxamide], the IC50 against SARS-CoV-2 Mpro is 97.3 nM; on HCoV-229E Mpro it was 56.2 nM; against HCoV-HKU1 Mpro, 30.6 nM; against MERS Mpro it was 429 nM; on HCoV-NL63 Mpro, 99.3 nM; at HCoV-OC43 Mpro it was 77.9 nM. At SARS-CoV-1 Mpro, the IC50 amounted to 149 nM.

For `O=C[C@H](C[C@@H]1CCNC1=O)NC(=O)[C@@H]1CC(F)(F)CN1C(=O)c1cc2ccccc2[nH]1` [Compound 115, (S)-4,4-difluoro-1-(1H-Indole-2-carbonyl)-N—((S)-1-oxo-3-((S)-2-oxopyrrolidin-3-yl)propan-2-yl)pyrrolidine-2-carboxamide], the IC50 against SARS-CoV-2 Mpro is 102 nM; at HCoV-229E Mpro, 53 nM; against HCoV-HKU1 Mpro it was 15 nM; against MERS Mpro, 303 nM; at HCoV-NL63 Mpro, 105 nM; against HCoV-OC43 Mpro, 87 nM. For the same compound, at SARS-CoV-1 Mpro, the IC50 came to 250 nM.

With `Cc1cccc2c1cc(C(=O)N1C[C@H]3[C@@H]([C@H]1C(=O)N[C@H](C=O)C[C@@H]1CCNC1=O)C3(C)C)n2C` [Compound 118, (1R,2S,5S)-3-(1,4-Dimethylindole-2-carbonyl)-N-[(1S)-1-formyl-2-[(3S)-2-oxopyrrolidin-3-yl]ethyl]-6,6-dimethyl-3-azabicyclo[3.1.0]hexane-2-carboxamide], the IC50 came out at 127 nM at SARS-CoV-2 Mpro; 325 nM against HCoV-229E Mpro; 324 nM against HCoV-HKU1 Mpro; 3290 nM against MERS Mpro; 1780 nM on HCoV-NL63 Mpro; 436 nM against HCoV-OC43 Mpro. In addition, it took 349 nM to reach half-maximal inhibition at SARS-CoV-1 Mpro (IC50).

In the case of `Cc1cccc([C@@H](C)C(=O)N2C[C@H]3[C@@H]([C@H]2C(=O)N[C@H](C#N)C[C@@H]2CCNC2=O)C3(C)C)c1` [Compound 120], the IC50 was 151 nM on SARS-CoV-2 Mpro (setting [1]); 299 nM on HCoV-229E Mpro (mean, 50 nM protein, 12.5 μM substrate, 30 min pre-incubation, 60 min at 30° C., read-out: Mpro_229E mean IC50); 193 nM on HCoV-HKU1 Mpro (mean, 12.5 nM protein, 12.5 μM substrate, 30 min pre-incubation, 60 min at 30° C., read-out: Mpro_HKU1 mean IC50); 1130 nM against MERS Mpro; 1400 nM on HCoV-NL63 Mpro (mean, 50 nM protein, 12.5 μM substrate, 30 min pre-incubation, 60 min at 30° C., read-out: Mpro_NL63 mean IC50); 567 nM on HCoV-OC43 Mpro (mean, 25 nM protein, 12.5 μM substrate, 30 min pre-incubation, 60 min at 30° C., read-out: Mpro_OC43 mean IC50). The compound further had an IC50 against SARS-CoV-1 Mpro of 196 nM.

Take `CO[C@@H]1C[C@@H](C(=O)N[C@H](C=O)C[C@@H]2CCNC2=O)N(C(=O)c2cc3ccccc3[nH]2)C1` [Compound 121, (2S,4R)-1-(1H-Indole-2-carbonyl)-4-methoxy-N—((S)-1-oxo-3-((S)-2-oxopyrrolidin-3-yl)propan-2-yl)pyrrolidine-2-carboxamide]: the IC50 at SARS-CoV-2 Mpro stood at 159 nM; against HCoV-229E Mpro, 152 nM; against HCoV-HKU1 Mpro, 546 nM; on MERS Mpro, 2630 nM; against HCoV-NL63 Mpro it was 198 nM; at HCoV-OC43 Mpro, 825 nM. At SARS-CoV-1 Mpro, this compound displayed an IC50 of 294 nM.

With `CC1(C)[C@@H]2[C@@H](C(=O)N[C@H](C=O)C[C@@H]3CCNC3=O)N(C(=O)c3[nH]c4ccccc4c3-c3ccccc3)C[C@@H]21` [Compound 122, (1R,2S,5S)-6,6-Dimethyl-N—((S)-1-oxo-3-((S)-2-oxopyrrolidin-3-yl)propan-2-yl)-3-(3-phenyl-1H-indole-2-carbonyl)-3-azabicyclo[3.1.0]hexane-2-carboxamide], the IC50 at SARS-CoV-2 Mpro came out at 162 nM; at HCoV-229E Mpro it was 172 nM; against HCoV-HKU1 Mpro it was 366 nM; against MERS Mpro, 1550 nM; against HCoV-NL63 Mpro, 1020 nM; on HCoV-OC43 Mpro, 423 nM. Further, on SARS-CoV-1 Mpro, the IC50 stood at 234 nM.

In the case of `CC1(C)[C@@H]2[C@@H](C(=O)N[C@H](C#N)C[C@@H]3CCNC3=O)N(C(=O)C3(c4cccc(Cl)c4)CC3)C[C@@H]21` [Compound 123, (1R,2S,5S)-3-(1-(3-Chlorophenyl)cyclopropanecarbonyl)-N—((S)-1-cyano-2-((S)-2-oxopyrrolidin-3-yl)ethyl)-6,6-dimethyl-3-azabicyclo[3.1.0]hexane-2-carboxamide], the IC50 came to 178 nM at SARS-CoV-2 Mpro (setting [1]); 459 nM at HCoV-229E Mpro; 185 nM on HCoV-HKU1 Mpro; 1180 nM at MERS Mpro; 2110 nM against HCoV-NL63 Mpro; 419 nM at HCoV-OC43 Mpro. This compound registered an IC50 at SARS-CoV-1 Mpro of 224 nM.

A word on the IC50: it is the concentration that gives 50% inhibition.

The record behind these values is patent US20260355212A1 (priority 2022, published 2026).
